Values quoted from earlier work, collected in patent US20100137787A1, “Delivery devices for modulating inflammation” (Searete LLC, a limited liability corporation of the State …, priority 2008, published 2010).

Key:
[1] = single agent, infused at 400 mg over one hour
Toll-like receptor 4 = Toll-like receptor 4 (Homo sapiens, UniProt O00206)
Chain of Toll-like receptor 4 (O00206 24-839, species assumed): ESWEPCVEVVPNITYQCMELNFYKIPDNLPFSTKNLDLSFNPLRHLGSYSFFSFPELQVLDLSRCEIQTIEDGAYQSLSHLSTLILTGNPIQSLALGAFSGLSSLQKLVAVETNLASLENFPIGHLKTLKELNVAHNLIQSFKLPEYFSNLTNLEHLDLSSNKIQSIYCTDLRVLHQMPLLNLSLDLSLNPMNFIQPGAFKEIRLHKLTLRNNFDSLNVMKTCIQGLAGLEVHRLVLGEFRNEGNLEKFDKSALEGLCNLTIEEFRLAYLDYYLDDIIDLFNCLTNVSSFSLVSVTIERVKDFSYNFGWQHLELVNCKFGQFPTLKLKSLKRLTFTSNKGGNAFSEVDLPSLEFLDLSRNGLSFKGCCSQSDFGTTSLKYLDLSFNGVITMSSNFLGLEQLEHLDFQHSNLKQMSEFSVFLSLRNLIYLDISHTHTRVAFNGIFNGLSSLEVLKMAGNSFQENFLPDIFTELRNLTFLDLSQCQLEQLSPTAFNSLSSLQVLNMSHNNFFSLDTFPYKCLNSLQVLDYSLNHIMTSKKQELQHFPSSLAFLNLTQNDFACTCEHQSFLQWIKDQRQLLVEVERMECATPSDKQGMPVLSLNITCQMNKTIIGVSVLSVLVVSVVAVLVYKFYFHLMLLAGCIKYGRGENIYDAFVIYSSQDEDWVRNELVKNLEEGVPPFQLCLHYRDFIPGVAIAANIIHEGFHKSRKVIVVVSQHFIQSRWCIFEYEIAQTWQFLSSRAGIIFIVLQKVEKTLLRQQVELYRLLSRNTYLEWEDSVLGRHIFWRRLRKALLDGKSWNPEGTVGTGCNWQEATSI

SMILES: CCN(CC)CCCC(C)Nc1ccnc2cc(Cl)ccc12.O=P(O)(O)O.O=P(O)(O)O (stereo not shown) [chloroquine phosphate, 7-chloro-4-[[4-(diethylamino)-1-methylbutyl]amino]quinoline phosphate (1:2)]
- tolerability of infusion [1]: without complication

SMILES: Cl.Cl.Nc1ccccc1Oc1ccc2c(N)nsc2c1 [Example M62812, 3-amino-6-(2-aminophenoxy)-1,2-benzisothiazole dihydrochloride]
- inhibitor of Toll-like receptor 4 (Toll-like receptor 4): inhibitor of Toll-like receptor 4

SMILES: CCN(CC)C(=S)SSC(=S)N(CC)CC [disulfiram, 1-(diethylthiocarbamoyldisulfanyl)-N,N-diethyl-methanethioamide]
- inhibition of aldehyde dehydrogenase (aldehyde dehydrogenase): inhibits
- toxicity accompanying aldehyde dehydrogenase inhibition (aldehyde dehydrogenase): without toxicity
